Data as given in patent US9556165B2 (priority 2012, dated 2017).
Values after ≈ are worked out from the molar mass of the structure shown. Where two headings read alike, the source gives them in different places.

Tests used:
Assay type in all cases: cell-based
E. coli ATCC25922 = test: MIC determination, broth microdilution (CLSI); conditions: for MIC: Escherichia coli, ATCC25922, strain 1
K. pneumoniae 60 = test: MIC determination, broth microdilution (CLSI); conditions: for MIC: Klebsiella pneumoniae, 60, strain 2
E. cloacae 34654 = test: MIC determination, broth microdilution (CLSI); conditions: for MIC: Enterobacter cloacae, 34654, strain 3
C. freundii K21/3034 = test: MIC determination, broth microdilution (CLSI); conditions: for MIC: Citrobacter freundii, K21/3034, strain 4
M. morganii 126/3048 = test: MIC determination, broth microdilution (CLSI); conditions: for MIC: Morganella morganii, 126/3048, strain 5
P. aeruginosa PAO1 = test: MIC determination, broth microdilution (CLSI); conditions: for MIC: Pseudomonas aeruginosa, PAO1, strain 6
[1] = tested on: P. aeruginosa 2297 (AmpC wt); test: MIC determination, broth microdilution (CLSI); conditions: for MIC: Pseudomonas aeruginosa, strain 7
[2] = tested on: P. aeruginosa 2297-con (AmpC derepressed); test: MIC determination, broth microdilution (CLSI); conditions: strain 8
A. baumannii ATCC15308 = test: MIC determination, broth microdilution (CLSI); conditions: for MIC: Acinetobacter baumannii, ATCC15308, strain 9
S. maltophilia ICB7569 = test: MIC determination, broth microdilution (CLSI); conditions: for MIC: Stenotrophomonas maltophilia, ICB7569, strain 10
S. aureus 133 = test: MIC determination, broth microdilution (CLSI)
E. coli J62 = test: MIC determination, broth microdilution (CLSI); conditions: broth microdilution; for MIC: Escherichia coli, J62, strain 17, read-out: MIC strain 17 (E. coli J62)
E. coli J62-TEM-3 = test: MIC determination, broth microdilution (CLSI); conditions: broth microdilution; for MIC: Escherichia coli, J62TEM3, read-out: MIC strain 18 (E. coli J62-TEM-3), strain 18
Bacteria = test: MIC determination in combination with β-lactamase inhibitors (constant 4 μg/mL)
H. influenzae ATCC 49247 = test: MIC determination, broth microdilution (CLSI); conditions: Haemophilus influenzae, ATCC49247, strain 12; broth microdilution; read-out: MIC strain 12 (H. influenzae ATCC 49247)
S. pneumoniae 113 = test: MIC determination, broth microdilution (CLSI); conditions: Streptococcus pneumoniae, 113, strain 13; broth microdilution; read-out: MIC strain 13 (S. pneumoniae 113)
B. fragilis 6688 = test: MIC determination, broth microdilution (CLSI); conditions: Bacteroides fragilis, 6688, strain 15; broth microdilution; read-out: MIC strain 15 (B. fragilis 6688)
[3] = Staphylococcus aureus, 133, strain 14, broth microdilution, read-out: MIC strain 14 (S. aureus 133)
[4] = Staphylococcus aureus, 133, strain 11, read-out: strain 11 MIC

| Structure (SMILES) | strain 1 MIC (E. coli ATCC25922) [µg/mL] | strain 2 MIC (K. pneumoniae 60) [µg/mL] | strain 3 MIC (E. cloacae 34654) [µg/mL] | strain 4 MIC (C. freundii K21/3034) [µg/mL] | MIC (P. aeruginosa PAO1) [µg/mL] | MIC [1] [µg/mL] | strain 8 MIC [2] [µg/mL] | MIC (A. baumannii ATCC15308) [µg/mL] | strain 10 MIC (S. maltophilia ICB7569) [µg/mL] | MIC (S. aureus 133; [3]) [µg/mL] | MIC strain 17 (E. coli J62) (E. coli J62) [µg/mL] | MIC strain 18 (E. coli J62-TEM-3) (E. coli J62-TEM-3) [µg/mL] | MIC strain 19 (E. coli J62-TEM-3 + 4 μg/mL clavulanic acid) (Bacteria) [µg/mL] | MIC strain 20 (E. coli J62-TEM-3 + 4 μg/mL sulbactam) (Bacteria) [µg/mL] | MIC strain 21 (E. coli J62-TEM-3 + 4 μg/mL tazobactam) (Bacteria) [µg/mL] | MIC (E. coli ATCC25922) [µg/mL] | MIC (K. pneumoniae 60) [µg/mL] | MIC (E. cloacae 34654) [µg/mL] | MIC (C. freundii K21/3034) [µg/mL] | MIC (M. morganii 126/3048) [µg/mL] | further results |
| --- | --- | --- | --- | --- | --- | --- | --- | --- | --- | --- | --- | --- | --- | --- | --- | --- | --- | --- | --- | --- | --- |
| CC1(C)[C@H](NC(=O)/C(=N\OC(CO)COc2ccc(C(=N)N)cc2)c2csc(N)n2)C(=O)N1OS(=O)(=O)O (mixture of isomers) [Example 45A, (2Z)-2-(2-Amino-1,3-thiazol-4-yl)-2-({[(2R and 2S)-1-(4-carbamimidoylphenoxy)-3-hydroxypropan-2-yl]oxy}imino)-N-[(3S)-2,2-dimethyl-4-oxo-1-(sulfooxy)azetidin-3-yl]ethanamide] | 0.5 | 0.5 | 1 | 0.25 | 8 | 16 | 8 | 2 | 8 | 8 | 0.5 | 1 | 0.5 | 0.5 | 0.5 | – | – | – | – | – | strain 5 MIC (M. morganii 126/3048; strain 5): 0.5 µg/mL |
| CC1(C)[C@H](NC(=O)/C(=N\O[C@@H](COc2ccc(C(=N)NC3CC3N)cc2)C(=O)O)c2csc(N)n2)C(=O)N1OS(=O)(=O)O (single isomer, unassigned) [Example 100B] | 2 | 2 | 4 | 2 | – | – | 16 | – | 32 | – | 4 (≈ 6.24 µM) | 16 (≈ 25 µM) | 2 | 2 | 2 | – | – | – | – | – | strain 6 MIC (P. aeruginosa PAO1; strain 6): 16 µg/mL; strain 7 MIC [1]: 32 µg/mL; strain 9 MIC (A. baumannii ATCC15308; strain 9): 32 µg/mL |
| C[C@H]1[C@H](NC(=O)/C(=N\OCCOc2ccc(C(=N)NNC=O)cc2)c2csc(N)n2)C(=O)N1S(=O)(=O)O [Example 63, (2S,3S)-3-({(2Z)-2-(2-Amino-1,3-thiazol-4-yl)-2-[(2-{4-[(2-formylhydrazinyl)(imino)methyl]phenoxy}ethoxy)imino]acetyl}amino)-2-methyl-4-oxoazetidine-1-sulfonic acid] | – | – | – | – | 8 (≈ 14.4 µM) | 8 (≈ 14.4 µM) | – | 16 (≈ 28.9 µM) | – | 16 (≈ 28.9 µM) | – | – | 0.25 | 0.5 | 0.5 | 0.5 (≈ 0.902 µM) | 0.25 (≈ 0.451 µM) | 0.5 (≈ 0.902 µM) | 0.25 (≈ 0.451 µM) | 0.5 (≈ 0.902 µM) | MIC (S. maltophilia ICB7569): 16 µg/mL (≈ 28.9 µM); MIC (S. aureus 133; [4]): 0.5 µg/mL (≈ 0.902 µM); MIC (H. influenzae ATCC 49247): 0.125 µg/mL (≈ 0.225 µM); MIC (S. pneumoniae 113): 0.5 µg/mL (≈ 0.902 µM); MIC (B. fragilis 6688): 16 µg/mL (≈ 28.9 µM); MIC (E. coli J62): 0.5 µg/mL (≈ 0.902 µM); MIC (E. coli J62-TEM-3): 8 µg/mL (≈ 14.4 µM) |
| C[C@H]1[C@H](NC(=O)/C(=N\OCCOc2ccc(C(=N)NN)cc2)c2csc(N)n2)C(=O)N1S(=O)(=O)O [Example 64, (2S,3S)-3-({(2Z)-2-(2-Amino-1,3-thiazol-4-yl)-2-[(2-{4-[hydrazinyl(imino)methyl]phenoxy}ethoxy)imino]acetyl}amino)-2-methyl-4-oxoazetidine-1-sulfonic acid] | – | – | – | – | 8 (≈ 15.2 µM) | 16 (≈ 30.4 µM) | – | 8 (≈ 15.2 µM) | – | 8 (≈ 15.2 µM) | – | – | 1 | 1 | 2 | 0.5 (≈ 0.95 µM) | 0.25 (≈ 0.475 µM) | 0.5 (≈ 0.95 µM) | 0.5 (≈ 0.95 µM) | 0.5 (≈ 0.95 µM) | MIC (S. maltophilia ICB7569): 32 µg/mL (≈ 60.8 µM); MIC (S. aureus 133; [4]): 16 µg/mL (≈ 30.4 µM); MIC (H. influenzae ATCC 49247): 8 µg/mL (≈ 15.2 µM); MIC (S. pneumoniae 113): 32 µg/mL (≈ 60.8 µM); MIC (E. coli J62): 1 µg/mL (≈ 1.9 µM); MIC (E. coli J62-TEM-3): 32 µg/mL (≈ 60.8 µM) |
